# Data from ChEMBL document CHEMBL1135774 (J Med Chem, 2002).
# Tests used:
# [1] = target: cGMP-specific 3',5'-cyclic phosphodiesterase (Homo sapiens, UniProt O76074); experiment: Phosphodiesterase 5 activity of human corpus cavernosum
# Homo sapiens = organism: Homo sapiens; experiment: Selectivity for human retinal cone PDE-6 and human corpus cavernosum PDE-5
# [2] = Oral bioavailability in rat; format: ADME, organism-based; details: in vivo
# [3] = pKa value of the compound; format: physicochemical
# Canis familiaris [4] = experiment: In vivo efficacy in dogs.; format: functional; details: Canis lupus familiaris
# [5] = pKa of the compound; format: physicochemical
# Canis familiaris [6] = experiment: In vivo efficacy in dogs; format: functional; details: Canis lupus familiaris
# Canis familiaris [7] = experiment: In vivo effect on erectile dysfunction in dogs after intravenous dose; format: functional; details: Canis lupus familiaris
Compound,Ki [1],Ratio (Homo sapiens),other results
CCN(CC)CCOc1ccc(-c2cnc(N3Cc4c(nc5ccccc5c4O)C3c3ccc4c(c3)CCO4)nc2)cc1 (stereo not drawn),0.53 nM,,
COc1ccc(-c2cnc(N3Cc4c(nc5ccccc5c4O)C3c3ccc(OC)c(OC)c3)nc2)cc1OC (stereo not drawn),24.7 nM,,
Oc1c2c(nc3ccccc13)C(c1ccc3c(c1)OCO3)N(c1ncccn1)C2 (stereo not drawn),1.2 nM,7.4,
COc1ccc(-c2cnc(N3CC(=O)c4c([nH]c5ccccc45)C3c3ccc4c(c3)OCO4)nc2)cc1OC (stereo not drawn),8.86 nM,,pKa [3]: ~14
CCCc1nn(C)c2c(=O)[nH]c(-c3cc(S(=O)(=O)N4CCN(C)CC4)ccc3OCC)nc12,,,bioavailability [2]: 11%; ED50 (Canis familiaris [6]): 5.1 µg/kg
Oc1ccc(-c2cnc(N3Cc4c(nc5ccccc5c4O)C3c3ccc4c(c3)CCO4)nc2)cc1 (stereo not drawn),1.75 nM,,
Oc1c2c(nc3ccccc13)C(c1ccc3c(c1)CCO3)N(c1ncc(-c3ccc(OCCN4CCOCC4)cc3)cn1)C2 (stereo not drawn),0.29 nM,,
COc1ccc(-c2cnc(N3Cc4c(nc5ccccc5c4O)C3c3ccc4c(c3)CCC4)nc2)cc1OC (stereo not drawn),1.14 nM,2.14,
Oc1c2c(nc3ccccc13)C(c1ccc3c(c1)CCO3)N(c1ncccn1)C2 (stereo not drawn),1.08 nM,310,

# Continued, in another order:
Ki [1],Ratio (Homo sapiens),Compound,other results
0.4 nM,55.9,COc1ccc(-c2cnc(N3Cc4c(nc5ccccc5c4O)C3c3ccc4c(c3)CCO4)nc2)cc1 (stereo not drawn),bioavailability [2]: 20%
0.31 nM,18.5,COc1ccc(-c2cnc(N3Cc4c(nc5ccccc5c4O)C3c3ccc4c(c3)OCO4)nc2)cc1 (stereo not drawn),
0.21 nM,0.59,COc1ccc(-c2cnc(N3Cc4c(nc5ccccc5c4O)[C@H]3c3ccc4c(c3)OCO4)nc2)cc1OC,ED50 (Canis familiaris [4]): 22.4 µg/kg; pKa [5]: 9
0.52 nM,3.07,COc1ccc(-c2cnc(N3Cc4c(nc5ccccc5c4O)C3c3ccc4c(c3)OCCO4)nc2)cc1 (stereo not drawn),
0.23 nM,27,COc1ccc(-c2cnc(N3Cc4c(nc5ccccc5c4O)[C@H]3c3ccc4c(c3)CCO4)nc2)cc1,ED50 (Canis familiaris [7]): 9.6 µg/kg
